From US20090227600A1, “4-(PYRAZINE-2-YL) -PYRROLIDINE -2-CARBOXYLIC ACID COMPOUNDS AND DERIVATIVES THEREOF AS HEPATITIS C VIRUS INHIBITORS” (priority 2004, published 2009)

Assays:
[1] = target: T1, HCV RNA Polymerase, recombinant full-length NS5B, genotype 1b (Hepatitis C virus genotype 1b, UniProt Q9WMX2); assay: In vitro HCV RNA-dependent RNA polymerase inhibition assay, genotype 1b full-length enzyme; format: biochemical, HCV genotype 1b; conditions: genotype 1b full-length NS5B enzyme
T1 construct: Recombinant full-length NS5B; made in house
T1 sequence (Q9WMX2 2420-3010): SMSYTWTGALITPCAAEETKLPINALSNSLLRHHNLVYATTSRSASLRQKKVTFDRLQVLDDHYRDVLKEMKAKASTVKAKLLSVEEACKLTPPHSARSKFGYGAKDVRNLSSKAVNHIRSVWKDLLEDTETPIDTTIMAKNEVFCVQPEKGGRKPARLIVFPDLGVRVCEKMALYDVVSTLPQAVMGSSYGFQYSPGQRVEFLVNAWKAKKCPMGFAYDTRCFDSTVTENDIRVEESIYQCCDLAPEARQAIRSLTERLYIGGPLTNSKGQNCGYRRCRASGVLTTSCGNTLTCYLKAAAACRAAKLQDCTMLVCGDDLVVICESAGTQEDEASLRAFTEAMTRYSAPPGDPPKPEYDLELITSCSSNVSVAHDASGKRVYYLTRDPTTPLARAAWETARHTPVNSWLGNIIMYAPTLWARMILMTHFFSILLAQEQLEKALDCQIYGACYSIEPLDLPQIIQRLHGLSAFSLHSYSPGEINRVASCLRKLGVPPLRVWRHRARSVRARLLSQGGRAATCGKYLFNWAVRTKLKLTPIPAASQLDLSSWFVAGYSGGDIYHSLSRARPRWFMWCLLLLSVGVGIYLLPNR
Experimental: Incorporation of [^33P]-GMP into RNA was followed by absorption of the biotin labelled RNA polymer by streptavidin containing SPA beads. A synthetic template consisting of biotinylated 13mer-oligoG hybridised to polyrC was used as a homopolymer substrate.
b) Genotype 1b Full-Length Enzyme
Reaction Conditions were 0.5 μM [^33P]-GTP (20 Ci/mMol), 1 mM Dithiothreitol, 20 mM MgCl2, 5 mM MnCl2, 20 mM Tris-HCl, pH7.5, 1.6 μg/mL polyC/0.256 μM biotinylated oligoG13, 10% glycerol, 0.01% NP-40, 0.2 u/μL RNasin and 50 mM NaCl.
HCV RNA Polymerase (Recombinant full-length NS5B (Lohmann et al, J. Virol. 71 (11), 1997, 8416. ‘Biochemical properties of hepatitis C virus NS5B RNA-dependent RNA polymerase and identification of amino acid sequence motifs essential for enzymatic activity’) expressed in baculovirus and purified to homogeneity) was added to 4 nM final concentration.
5× concentrated assay buffer mix was prepared using 1M MnCl2 (0.25 mL), glycerol (2.5 mL), 10% NP-40 (0.025 mL) and Water (7.225 mL), Total 10 mL.
2× concentrated enzyme buffer contained 1M-Tris-HCl, pH7.5 (0.4 mL), 5M NaCl (0.2 mL), 1M-MgCl2 (0.4 mL), glycerol (1 mL), 10% NP-40 (10 μL), 1M DTT (20 μL) and water (7.97 mL), Total 10 mL.
Substrate Mix was prepared using 5× Concentrated assay Buffer mix (4 μL), [^33P]-GTP (10 μCi/μL, 0.02 μL), 25 μM GTP (0.4 μL), 40 u/μL RNasin (0.1 μL), 20 μg/mL polyrC/biotinylated-oligoG (1.6 μL), and Water (3.94 μL), Total 10 μL.
Enzyme Mix was prepared by adding 1 mg/ml full-length NS5B polymerase (1.5 μL) to 2.81 mL 2×-concentrated enzyme buffer.
The Assay was set up using compound (1 μL), Substrate Mix (10 μL), and Enzyme Mix (added last to start reaction) (10 μL), Total 21 μL.
The reaction was performed in a U-bottomed, white, 96-well plate. The reaction was mixed on a plate-shaker, after addition of the Enzyme, and incubated for 1 h at 22° C. After this time, the reaction was stopped by addition of 40 μL 1.875 mg/ml streptavidin SPA beads in 0.1 M EDTA. The beads were incubated with the reaction mixture for 1 h at 22° C. after which 120 μL 0.1 M EDTA in PBS was added. The plate was sealed, mixed centrifuged and incorporated radioactivity determined by counting in a Trilux (Wallac) or Topcount (Packard) Scintillation Counter.
After subtraction of background levels without enzyme, any reduction in the amount of radioactivity incorporated in the presence of a compound, compared to that in the absence, was taken as a measure of the level of inhibition. Ten concentrations of compounds were tested in three- or fivefold dilutions. From the counts, percentage of inhibition at highest concentration tested or IC50s for the compounds were calculated using GraFit 3, GraFit 4 or GraFit 5 (Erithacus Software Ltd.) software packages or a data evaluation macro for Excel based on XLFit Software (IDBS).

[2] = tested on: Huh-7 HCV replicon cells (sub-line 5-15; genotype 1b); assay: Replicon ELISA cell based assay, genotype 1b; design: species or system HCV genotype 1b; conditions: Hepatitis C virus, Huh-7 genotype 1b replicon (sub-line 5-15), 72 hours
Experimental: 100 μL of medium containing 10% FCS were added to each well of clear, flat-bottomed 96 well microplates, excepting wells in the top row. Test compound was diluted in assay medium to twice the final required starting concentration from a 40 mM stock solution in DMSO. 200 μL of the starting dilution were introduced into two wells each in the top row and doubling dilutions made down the plate by the sequential transfer of 100 μL aliquots with thorough mixing in the wells; the final 100 μL were discarded. The two bottom rows were not used for compound dilutions. Huh-7 HCV replicon cell monolayers nearing confluency were stripped from growth flasks with versene-trypsin solution and the cells were resuspended in assay medium at either 2×10^5 cells/mL (sub-line 5-15; genotype 1b; Lohmann, V., Komer, F., Koch, J-O., Herian, U., Thielmann, L. And Bartenschlager, R., 1999, Science, 285, pp 110-113) or at 3×10^5 cells/mL (genotype 1a; Gu, B., Gates, A. T., Isken, O., Behrens, S. E. and Sarisky, R. T., J. Virol., 2003, 77, 5352-5359). 100 μL of cell suspension were added to all wells and the plates incubated at 37° C. for 72 hours in a 5% CO2 atmosphere.
Following incubation, the assay medium was aspirated from the plates. The cell sheets were washed by gentle immersion in phosphate buffered saline (PBS), which was then aspirated off, and fixed with acetone:methanol (1:1) for 5 minutes. Following a further wash with PBS, 100 μL of ELISA diluent (PBS+0.05% v/v Tween 20+2% w/v skimmed milk powder) were added to all wells and the plates incubated at 37° C. for 30 minutes on an orbital platform. The diluent was removed and each well then received 50 μL of a 1/200 dilution of anti-HCV specific, murine, monoclonal antibody (either Virostat #1872 or #1877), except for wells in one of the compound-free control rows which received diluent alone to act as negative controls. The plates were incubated at 37° C. for 2 hours and washed 3 times with PBS/0.05% Tween 20, then 50 μL of horseradish peroxidase conjugated, anti-mouse, rabbit polyclonal serum (Dako #P0260), diluted 1/1000, were added to all wells. The plates were incubated for a further hour, the antibody removed and the cell sheets washed 5 times with PBS/Tween and blotted dry. The assay was developed by the addition of 50 μL of ortho-phenylenediamine/peroxidase substrate in urea/citrate buffer (SigmaFast, Sigma #P-9187) to each well, and colour allowed to develop for up to 15 minutes. The reaction was stopped by the addition of 25 μL per well of 2 M sulphuric acid and the plates were read at 490 nm on a Fluostar Optima spectrophotometer.
The substrate solution was removed and the plates were washed in tap water, blotted dry and the cells stained with 5% carbol fuchsin in water for 30 minutes. The stain was discarded and the cell sheets washed, dried and examined microscopically to assess cytotoxicity.
The absorbance values from all compound-free wells that had received both primary and secondary antibodies were averaged to obtain a positive control value. The mean absorbance value from the compound-free wells that had not received the primary antibody was used to provide the negative (background) control value. The readings from the duplicate wells at each compound concentration were averaged and, after the subtraction of the mean background from all values, were expressed as a percentage of the positive control signal. The quantifiable and specific reduction of expressed protein detected by the ELISA in the presence of a drug can be used as a measure of replicon inhibition. GraFit software was used to plot the curve of percentage inhibition against compound concentration and derive the 50% inhibitory concentration (IC50) for the compound.

| SMILES | IC50 [1] | IC50 [2] |
| --- | --- | --- |
| COc1cc(C(=O)N2[C@@H](c3nccs3)[C@@H](c3cnccn3)C[C@@]2(Cc2nccs2)C(=O)O)ccc1C(C)(C)C (single isomer, unassigned; enantiomer a) [Example 4] | < 100 nM | < 100 nM |
| COc1cc(C(=O)N2[C@@H](c3nccs3)[C@@H](c3cnccn3)C[C@@]2(Cc2cscn2)C(=O)O)ccc1C(C)(C)C (single isomer, unassigned; enantiomer a) [Example 2] | < 100 nM | < 100 nM |
| COc1cc(C(=O)N2[C@@H](c3nccs3)[C@@H](c3cnccn3)C[C@@]2(Cc2nccs2)C(=O)O)ccc1C(C)(C)C (racemic) [Example 3, rel-(2R,4S,5R)-1-(3-Methoxy-4-tert-butylbenzoyl)-4-(pyrazin-2-yl)-2-(1,3-thiazol-2-ylmethyl)-5-(1,3-thiazol-2-yl)pyrrolidine-2-carboxylic acid] | < 100 nM | < 100 nM |
| COc1cc(C(=O)N2[C@@H](c3nccs3)[C@@H](c3cnccn3)C[C@@]2(CCS(C)(=O)=O)C(=O)O)ccc1C(C)(C)C (racemic) [Compound F, rel-(2R,4S,5R)-1-(4-tert-Butyl-3-methoxybenzoyl)-2-(2-(methylsulphonyl)ethyl)-4-pyrazin-2-yl-5-(1,3-thiazol-2-yl)-pyrrolidine-2-carboxylic acid, reference compound] | > 500 nM | > 10000 nM |
| COc1cc(C(=O)N2[C@@H](c3nccs3)[C@@H](c3cnccn3)C[C@@]2(CC(C)C)C(=O)O)ccc1C(C)(C)C (single isomer, unassigned; enantiomer a) [Compound B, reference compound] | > 500 nM | 100 to 10000 nM |
| COc1cc(C(=O)N2[C@@H](c3nccs3)[C@@H](c3cnccn3)C[C@@]2(Cn2cccn2)C(=O)O)ccc1C(C)(C)C (racemic) [Example 11, rel-(2R,4S,5R)-1-(3-Methoxy-4-tert-butylbenzoyl)-4-(pyrazin-2-yl)-2-(1H-pyrazol-1-ylmethyl)-5-(1,3-thiazol-2-yl)pyrrolidine-2-carboxylic acid] | < 100 nM | < 100 nM |
| COc1cc(C(=O)N2[C@@H](c3ncc(C)s3)[C@@H](c3cnccn3)C[C@@]2(Cc2cscn2)C(=O)O)ccc1C(C)(C)C (single isomer, unassigned; enantiomer a) [Example 16] | < 100 nM | < 100 nM |
| COc1cc(C(=O)N2[C@@H](c3nccs3)[C@@H](c3cnccn3)C[C@@]2(Cc2c[nH]cn2)C(=O)O)ccc1C(C)(C)C (racemic) [Compound D, rel-(2R,4S,5R)-1-(4-tert-Butyl-3-methoxybenzoyl)-2-(1H-imidazol-4-yl-methyl)-4-(pyrazin-2-yl)-5-(1,3-thiazol-2-yl)-pyrrolidine-2-carboxylic acid, reference compound] | 100 to 500 nM | 100 to 10000 nM |
| COc1cc(C(=O)N2[C@@H](c3nccs3)[C@@H](c3cnccn3)C[C@@]2(Cc2ccsn2)C(=O)O)ccc1C(C)(C)C (single isomer, unassigned; enantiomer a) [Example 8] | < 100 nM | < 100 nM |
